Eight compounds from patent publication US20220259165A1, “S-OXIDES OF 2,3-DIARYL-2,3-DIHYDRO-4H-1,3-THIAZIN-4-ONES AND 2,3-DIARYL-1,3-THIAZEPAN-4-ONES AND METHODS FOR MAKING” (The Penn State Research Foundation, priority 2019, published 2022) can be followed below.

A word on the melting point: it is the temperature of the solid-liquid transition.

Molecules are shown by their SMILES.

The compound `CC(=O)N[C@H]1C[S@+]([O-])[C@@H](c2ccccc2)N(c2ccccc2)C1=O` [Example 1b, N-[(1S,2S,5R)-1,4-dioxo-2,3-diphenyl-1λ^4,3-thiazinan-5-yl]acetamide] came in with a melting point of 176 to 179 °C.
As to `O=C1c2ccccc2[S+]([O-])C(c2ccccc2)N1c1ccccc1` (centres unmarked) [Example 1c, 2,3-diphenyl-2,3-dihydro-4H-1,3-benzothiazin-4-one 1-oxide], the melting point lay within 208 to 209 °C.
Then `O=C1c2cccnc2[S+]([O-])C(c2ccccc2)N1c1ccccc1` (centres unmarked) [Example 1d, 2,3-diphenyl-2,3-dihydro-4H-pyrido[3,2-e]-[1,3]thiazin-4-one 1-oxide], with 177 to 179 °C; and `O=C1CC2(CC2)C[S+]([O-])C(c2ccccc2)N1c1ccccc1` (centres unmarked) [Example 1e, 6,7-diphenyl-5λ^4-thia-7-azaspiro[2.6]nonane-5,8-dione], with 193 to 194 °C; and `O=C1CCS(=O)(=O)C(c2ccccc2)N1c1ccccc1` (centres unmarked) [Example 2a, 2,3-diphenyl-2,3,5,6-tetrahydro-4H-1,3-thiazin-4-one 1,1-dioxide], with 145 to 148 °C.
The figure for `CC(=O)N[C@H]1CS(=O)(=O)[C@@H](c2ccccc2)N(c2ccccc2)C1=O` [Example 2b, N-[(2S,5R)-1,1,4-trioxo-2,3-diphenyl-1λ^6,3-thiazinan-5-yl]acetamide] is 170 to 194 °C (dec.); for `O=C1c2ccccc2S(=O)(=O)C(c2ccccc2)N1c1ccccc1` (centres unmarked) [Example 2c, 2,3-diphenyl-2,3-dihydro-4H-1,3-benzothiazin-4-one 1,1-dioxide] it is 163 to 165 °C.
Then `O=C1CC2(CC2)CS(=O)(=O)C(c2ccccc2)N1c1ccccc1` (centres unmarked) [Example 2e, 6,7-diphenyl-5?^6-thia-7-azaspiro[2.6]nonane-5,5,8-trione], with 186.6 to 187.7 °C (dec.).
